Source: patent US10138275B2, “Crystalline powder of cyclic peptide compound, preparation method for same, and uses thereof” (SHANGHAI TECHWELL BIOPHARMACEUTICAL CO., LTD, priority 2014, dated 2018)
Starred links: 1 amine or outer side, 2 acyl side, 3 side chain; linkers in the order of their positions; H or OH if unused. Positions of bridges follow the written chain, without caps; N, C: chain ends. Non-standard residues stand in square brackets, D forms with d. Residues, ends and D or L forms follow the SMILES beside them. *: point of attachment. hTyr(3S-OH,4S-OH,3'-OSO3H) = N[C@H](C(=O)O)[C@H](O)[C@@H](O)c1ccc(O)c(OS(=O)(=O)O)c1; Orn(4R-OH,5R-OH) = O=C([C@H](C[C@@H](O)[C@@H](O)N[*:3])N[*:1])[*:2]; Pro(3S-OH,4S-Me) = C[C@H]1CN[C@H](C(=O)O)[C@H]1O; X1 = CCCCCOc1ccc(-c2cc(-c3ccc(C(=O)*)cc3)no2)cc1; Gln(3R-OH) = NC(=O)C[C@@H](O)[C@H](N)C(=O)O; Hyp = O=C(O)[C@@H]1C[C@@H](O)CN1

Experiments:
Type in all cases: physicochemical
[1] = Particle size distribution (d10, d50) by Malvern particle size analyzer / laser diffraction; conditions: after drying
Method: […] Wherein, d10 and d50 are means known for indicating the particle size distribution. d50 refers to a value of particle size, and the size of 50 vol/% of particles is smaller than said value. D10 refers to a value of particle size, and the size of 10 vol/% of particles is smaller than said value. The preferred method for determining d10 and d50 is laser diffraction, d50 of the crystalline powder of the compound of formula I according to the present invention is determined as 10-100 um, and d10 is determined as 1-9 um. Preferably, d50 of the crystalline powder is 20-50 um, and d10 thereof is 1-5 um. Before solid-liquid separation, d50 of the crystalline powder of the compound of formula I is 10-100 um, and d10 thereof is 1-9 um. Preferably, d50 of the crystalline powder is 20-50 um, and d10 thereof is 3-6 um.

[2] = Bulk density of powder by cylinder measurement; conditions: after drying
Method: “Bulk density of powder” is a measurement standard for the relative importance of the interaction between microparticles by comparing the bulk density and tapped density of the powder. Methods for measuring bulk density of powder are known in the art; for example, it can be determined by cylinder measurement, volumetric measurement, and container measurement. Bulk density of the crystalline powder of the compound of formula I according to the present invention is determined as less than 0.7 g/mL, preferably less than 0.6 g/mL, most preferably less than 0.5 g/mL, by cylinder measurement.

[3] = Ratio of dry weight to wet weight (Dry/Wet) of filtered solids; conditions: wet solids weighed after filtration, before drying
From the text: As used herein, the term “Dry/Wet” and “ratio of dry weight to wet weight” can be used interchangeably, both of which refer to the ratio of the weight of a compound without solvent(s) to the weight of the compound with solvent(s). In the present invention, wet weight of crystals is obtained by filtering the crystallized solids until no noticeable droplet outflows and weighing the solids.

[4] = Vacuum-drying at 25° C. with a water system until no organic solvent detected by GC; purity by HPLC; conditions: for time Needed (for drying): 25° C., vacuum-drying with a water system until no organic solvent detected by GC; for Purity before drying / Purity after drying: HPLC; for Purity before drying: 5 g of solids; for Purity after drying: vacuum-dried at 25° C. with a water system until no organic solvent detected by GC
From the text: High performance liquid chromatography (HPLC) is a common method for determining the purity of a compound, wherein a liquid is used as the mobile phase and a high-pressure transfusion system is used for pumping the mobile phase, such as single solvents with different polarities, a mixture of solvents at different proportions, or buffers, into a column packed with a stationary phase. Each component is separated in the column, and then enters into a detector for detection, thereby analyzing a sample. In the present invention, HPLC is used for determining the purity of the compound of formula I and studying the stability of a sample. Conditions of the HPLC method are listed as follows:
Analysis Column: YMC-ODS 250×4.6 mm, 5 μm;
Mobile phase: acetonitrile:phosphate buffer (pH 3.0)=45:70;
Column temperature: 35° C.;
Diluent: aqueous phosphate buffer;
Detection wavelength: 210 nm;
Gas chromatography (GC) used to separate and measure trace impurities in a compound is an accurate, qualitative and quantitative method of analysis. In the present invention, the content of organic solvents in the crystalline powder of the compound of formula I obtained in the present invention is measured by gas chromatography (GC).
5 g of solids were prepared according to the methods of Examples 2-10 and Comparative Examples 1-3 respectively, placed at 25° C., and vacuum-dried together with a water system until no organic solvent was detected through GC. The time for drying was compared, and the purity of the sample was analyzed.

CCCCCOc1ccc(-c2cc(-c3ccc(C(=O)N[C@H]4C[C@@H](O)[C@@H](O)NC(=O)[C@@H]5[C@@H](O)[C@@H](C)CN5C(=O)[C@H]([C@H](O)CC(N)=O)NC(=O)[C@H]([C@H](O)[C@@H](O)c5ccc(O)c(OS(=O)(=O)[O-])c5)NC(=O)[C@@H]5C[C@@H](O)CN5C(=O)[C@H]([C@@H](C)O)NC4=O)cc3)no2)cc1.[Na+] [Example 9] (X1-[Orn(4R-OH,5R-OH)]T[Hyp][hTyr(3S-OH,4S-OH,3'-OSO3H)][Gln(3R-OH)][Pro(3S-OH,4S-Me)]; lactam 1-C)
d10, particle size of the crystalline powder [1]: 1.3 um | d50, particle size of the crystalline powder [1]: 20 um | Bulk density [2]: 0.54 g/mL | ratio of dry weight to wet weight (Dry/Wet) [3]: 0.62 | time Needed (for drying) [4]: 8.5 h | Purity before drying [4]: 99.42% | Purity after drying [4]: 99.38%

CCCCCOc1ccc(-c2cc(-c3ccc(C(=O)N[C@H]4C[C@@H](O)[C@@H](O)NC(=O)[C@@H]5[C@@H](O)[C@@H](C)CN5C(=O)[C@H]([C@H](O)CC(N)=O)NC(=O)[C@H]([C@H](O)[C@@H](O)c5ccc(O)c(OS(=O)(=O)[O-])c5)NC(=O)[C@@H]5C[C@@H](O)CN5C(=O)[C@H]([C@@H](C)O)NC4=O)cc3)no2)cc1.[Na+] [Example 4] (X1-[Orn(4R-OH,5R-OH)]T[Hyp][hTyr(3S-OH,4S-OH,3'-OSO3H)][Gln(3R-OH)][Pro(3S-OH,4S-Me)]; lactam 1-C)
d10, particle size of the crystalline powder [1]: 5.1 um | d50, particle size of the crystalline powder [1]: 50 um | Bulk density [2]: 0.55 g/mL | ratio of dry weight to wet weight (Dry/Wet) [3]: 0.61 | time Needed (for drying) [4]: 9 h | Purity before drying [4]: 99.64% | Purity after drying [4]: 99.64%

CCCCCOc1ccc(-c2cc(-c3ccc(C(=O)N[C@H]4C[C@@H](O)[C@@H](O)NC(=O)[C@@H]5[C@@H](O)[C@@H](C)CN5C(=O)[C@H]([C@H](O)CC(N)=O)NC(=O)[C@H]([C@H](O)[C@@H](O)c5ccc(O)c(OS(=O)(=O)[O-])c5)NC(=O)[C@@H]5C[C@@H](O)CN5C(=O)[C@H]([C@@H](C)O)NC4=O)cc3)no2)cc1.[Na+] [Example 3] (X1-[Orn(4R-OH,5R-OH)]T[Hyp][hTyr(3S-OH,4S-OH,3'-OSO3H)][Gln(3R-OH)][Pro(3S-OH,4S-Me)]; lactam 1-C)
d10, particle size of the crystalline powder [1]: 3.7 um | d50, particle size of the crystalline powder [1]: 43.1 um | Bulk density [2]: 0.43 g/mL | ratio of dry weight to wet weight (Dry/Wet) [3]: 0.52 | time Needed (for drying) [4]: 6.5 h | Purity before drying [4]: 99.63% | Purity after drying [4]: 99.61%

CCCCCOc1ccc(-c2cc(-c3ccc(C(=O)N[C@H]4C[C@@H](O)[C@@H](O)NC(=O)[C@@H]5[C@@H](O)[C@@H](C)CN5C(=O)[C@H]([C@H](O)CC(N)=O)NC(=O)[C@H]([C@H](O)[C@@H](O)c5ccc(O)c(OS(=O)(=O)[O-])c5)NC(=O)[C@@H]5C[C@@H](O)CN5C(=O)[C@H]([C@@H](C)O)NC4=O)cc3)no2)cc1.[Na+] [Example 6] (X1-[Orn(4R-OH,5R-OH)]T[Hyp][hTyr(3S-OH,4S-OH,3'-OSO3H)][Gln(3R-OH)][Pro(3S-OH,4S-Me)]; lactam 1-C)
d50, particle size of the crystalline powder [1]: 48.7 um | Bulk density [2]: 0.49 g/mL | ratio of dry weight to wet weight (Dry/Wet) [3]: 0.6 | time Needed (for drying) [4]: 8.5 h | Purity before drying [4]: 99.61% | Purity after drying [4]: 99.6%

CCCCCOc1ccc(-c2cc(-c3ccc(C(=O)N[C@H]4C[C@@H](O)[C@@H](O)NC(=O)[C@@H]5[C@@H](O)[C@@H](C)CN5C(=O)[C@H]([C@H](O)CC(N)=O)NC(=O)[C@H]([C@H](O)[C@@H](O)c5ccc(O)c(OS(=O)(=O)[O-])c5)NC(=O)[C@@H]5C[C@@H](O)CN5C(=O)[C@H]([C@@H](C)O)NC4=O)cc3)no2)cc1.[Na+] [Example 5] (X1-[Orn(4R-OH,5R-OH)]T[Hyp][hTyr(3S-OH,4S-OH,3'-OSO3H)][Gln(3R-OH)][Pro(3S-OH,4S-Me)]; lactam 1-C)
d10, particle size of the crystalline powder [1]: 9 um | d50, particle size of the crystalline powder [1]: 97.7 um | Bulk density [2]: 0.6 g/mL | ratio of dry weight to wet weight (Dry/Wet) [3]: 0.66 | time Needed (for drying) [4]: 10 h | Purity before drying [4]: 99.52% | Purity after drying [4]: 99.47%

CCCCCOc1ccc(-c2cc(-c3ccc(C(=O)N[C@H]4C[C@@H](O)[C@@H](O)NC(=O)[C@@H]5[C@@H](O)[C@@H](C)CN5C(=O)[C@H]([C@H](O)CC(N)=O)NC(=O)[C@H]([C@H](O)[C@@H](O)c5ccc(O)c(OS(=O)(=O)[O-])c5)NC(=O)[C@@H]5C[C@@H](O)CN5C(=O)[C@H]([C@@H](C)O)NC4=O)cc3)no2)cc1.[Na+] [Example 2] (X1-[Orn(4R-OH,5R-OH)]T[Hyp][hTyr(3S-OH,4S-OH,3'-OSO3H)][Gln(3R-OH)][Pro(3S-OH,4S-Me)]; lactam 1-C)
d10, particle size of the crystalline powder [1]: 3 um | d50, particle size of the crystalline powder [1]: 31.9 um | Bulk density [2]: 0.45 g/mL | ratio of dry weight to wet weight (Dry/Wet) [3]: 0.45 | time Needed (for drying) [4]: 7 h | Purity before drying [4]: 99.68% | Purity after drying [4]: 99.68%

CCCCCOc1ccc(-c2cc(-c3ccc(C(=O)N[C@H]4C[C@@H](O)[C@@H](O)NC(=O)[C@@H]5[C@@H](O)[C@@H](C)CN5C(=O)[C@H]([C@H](O)CC(N)=O)NC(=O)[C@H]([C@H](O)[C@@H](O)c5ccc(O)c(OS(=O)(=O)[O-])c5)NC(=O)[C@@H]5C[C@@H](O)CN5C(=O)[C@H]([C@@H](C)O)NC4=O)cc3)no2)cc1.[Na+] [Example 8] (X1-[Orn(4R-OH,5R-OH)]T[Hyp][hTyr(3S-OH,4S-OH,3'-OSO3H)][Gln(3R-OH)][Pro(3S-OH,4S-Me)]; lactam 1-C)
d10, particle size of the crystalline powder [1]: 2.6 um | d50, particle size of the crystalline powder [1]: 18.7 um | Bulk density [2]: 0.38 g/mL | ratio of dry weight to wet weight (Dry/Wet) [3]: 0.45 | time Needed (for drying) [4]: 6 h | Purity before drying [4]: 99.52% | Purity after drying [4]: 99.46%

CCCCCOc1ccc(-c2cc(-c3ccc(C(=O)N[C@H]4C[C@@H](O)[C@@H](O)NC(=O)[C@@H]5[C@@H](O)[C@@H](C)CN5C(=O)[C@H]([C@H](O)CC(N)=O)NC(=O)[C@H]([C@H](O)[C@@H](O)c5ccc(O)c(OS(=O)(=O)[O-])c5)NC(=O)[C@@H]5C[C@@H](O)CN5C(=O)[C@H]([C@@H](C)O)NC4=O)cc3)no2)cc1.[Na+] [Example 10] (X1-[Orn(4R-OH,5R-OH)]T[Hyp][hTyr(3S-OH,4S-OH,3'-OSO3H)][Gln(3R-OH)][Pro(3S-OH,4S-Me)]; lactam 1-C)
d10, particle size of the crystalline powder [1]: 8.3 um | d50, particle size of the crystalline powder [1]: 100 um | Bulk density [2]: 0.56 g/mL | ratio of dry weight to wet weight (Dry/Wet) [3]: 0.63 | time Needed (for drying) [4]: 9 h | Purity before drying [4]: 99.5% | Purity after drying [4]: 99.43%
